Here are results for three molecules from paper PMC10380619, “Inhibitor Trapping in N-Myristoyltransferases as a Mechanism for Drug Potency” (International Journal of Molecular Sciences, 2023).

Structures are written as SMILES. pIC50: −log10 of the molar value.

Assay [1] concerns the target T1, full-length recombinant HsNMT1 enzyme (Homo sapiens, UniProt P30419).
T1 construct: 18.9 nM full-length recombinant HsNMT1 enzyme was incubated; purchased Fitzgerald Industries International 80R-4067
T1 sequence (P30419 1-496): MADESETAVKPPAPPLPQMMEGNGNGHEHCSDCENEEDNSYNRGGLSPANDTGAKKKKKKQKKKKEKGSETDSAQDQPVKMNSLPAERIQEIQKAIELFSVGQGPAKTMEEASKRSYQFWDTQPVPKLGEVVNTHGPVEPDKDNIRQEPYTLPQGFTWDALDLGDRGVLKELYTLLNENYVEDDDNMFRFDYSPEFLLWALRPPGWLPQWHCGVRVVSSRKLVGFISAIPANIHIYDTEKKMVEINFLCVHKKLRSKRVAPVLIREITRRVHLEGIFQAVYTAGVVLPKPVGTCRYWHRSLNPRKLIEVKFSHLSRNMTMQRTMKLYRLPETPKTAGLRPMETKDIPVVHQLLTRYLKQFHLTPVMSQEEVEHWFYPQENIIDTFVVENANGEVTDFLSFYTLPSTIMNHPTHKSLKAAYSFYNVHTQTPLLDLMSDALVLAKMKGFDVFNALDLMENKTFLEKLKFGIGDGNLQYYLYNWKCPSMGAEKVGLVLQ
Description: fluorogenic NMT inhibition assay. Format: biochemical. On the procedure: Materials and reagents. […] The ZINC IDs and the structures of the compounds are included in Table S1. […] CPM (7-Diethylamino-3- (4-maleimidophenyl)-4-methylcoumarin) and Myristoyl-CoA were purchased from Cayman Chemicals, and the buffer components from Merck (Kenilworth, NJ, USA).
NMT inhibition assay. IC50 values were determined using a fluorogenic NMT assay, as previously described. The assay detects Coenzyme A (CoA), which is released as a byproduct of the enzymatic reaction. […] The reactions were performed in reaction buffer (20 mM potassium phosphate, pH 8.0, 0.5 mM EDTA, 0.1% (v/v) Triton® X-100) in 44 µL volume in a 96-well black plate. To eliminate the background fluorescence, reactions were also performed in the absence of the NMT1 enzyme for each concentration of the ligands. […] Fluorescence was measured at an excitation wavelength of 380 nm and an emission wavelength of 470 nm with a CLARIOstar fluorescent reader (BMG LABTECH GmbH, Ortenberg, Germany). The fluorescent values of samples obtained in the absence of NMT1 were subtracted from the fluorescent signal of samples performed in the presence of NMT1 to eliminate the background signal. The subtracted values were plotted in GraphPad Prism using a log (inhibitor concentration) vs. normalized response nonlinear fit to generate inhibitory curves and determine IC50 values.

For the next assay, the system named is NMT. Particulars: cited from earlier work; for pIC50: fragments as single agents.

With `Cc1nc(Nc2cnn(C3CCNCC3)c2)nc2c1N(C)C(=O)c1cc3ccccc3cc1N2C` [compound 11], in assay [1] (18.9 nM HsNMT1, 4 µM Myristoyl-CoA, 4 µM substrate peptide, highest concentration 100 µM), the pIC50 was less than 4.00. In addition, the “% Inhibition” value in assay [1] (at concentration of the compounds 100 µM) came to 0%. Also, in assay [1] (ratio of IC50 of each compound to IC50 of IMP-1088), the “Fold Potency” value was >13,158.

Regarding `CCOC(=O)c1c(C)nc2ccccc2c1C` [IMP-358], the negative logarithm of the IC50 (pIC50) in the assay with NMT was less than 4.00.

As for `Cc1cc(F)ccc1-c1ccc2[nH]nc(CN(C)C)c2c1` [IMP-72], the pIC50 in the assay on NMT is 4.70. Besides, in the assay on NMT (in the presence of 100 µM IMP-358), the “fold reduction of IC50 of IMP-72 by IMP-358” value is 308 fold.
